Source: ChEMBL document CHEMBL5724914, “Linking interpersonal differences in gut microbiota composition and drug biotransformation activity” (2024)

What was measured:
[1] = (§1) The drug is tested on Z-004 corresponding to metagenome with ENA study accession number: PRJEB37062 and ENA sample accession number: ERS12561804 for biotransformation under anaerobic condition. The drug concentrations were measured over 9 timepoints collected between 0 and 24 hours of incubation by liquid-chromatography-coupled mass spectrometry (LC–MS); conditions: 2 µM
[2] = (§2) The drug is tested on WLS-240 corresponding to human gut metagenome with ENA study accession number: PRJEB37062 and ENA sample accession number: ERS12561773 for biotransformation under anaerobic condition. The drug concentrations were measured over 9 timepoints collected between 0 and 24 hours of incubation by liquid-chromatography-coupled mass spectrometry (LC–MS); conditions: 2 µM
[3] = as §2, with “WLS-220” for “WLS-240”, “ERS12561769” for “ERS12561773”; conditions: 2 µM
[4] = as §2, with “WLS-098” for “WLS-240”, “ERS12561754” for “ERS12561773”; conditions: 2 µM
[5] = as §2, with “WLS-073” for “WLS-240”, “ERS12561749” for “ERS12561773”; conditions: 2 µM
[6] = as §2, with “WLS-038” for “WLS-240”, “ERS12561745” for “ERS12561773”; conditions: 2 µM
[7] = as §2, with “WLS-007” for “WLS-240”, “ERS12561742” for “ERS12561773”; conditions: 2 µM
[8] = human gut metagenome, 24 h, 2 µM
[9] = human gut metagenome, 24 h, 2 µM; remark: listed apart in the source
[10] = human gut metagenome, 24 h, 2 µM; remark: listed apart in the source
[11] = human gut metagenome, 24 h, 2 µM; remark: listed apart in the source
[12] = human gut metagenome, 24 h, 2 µM; remark: listed apart in the source
[13] = human gut metagenome, 24 h, 2 µM; remark: listed apart in the source
[14] = human gut metagenome, 24 h, 2 µM; remark: listed apart in the source
[15] = human gut metagenome, 24 h, 2 µM; remark: listed apart in the source
[16] = human gut metagenome, 24 h, 2 µM; remark: listed apart in the source
[17] = human gut metagenome, 24 h, 2 µM; remark: listed apart in the source
[18] = as §1, with “Z-010” for “Z-004”, “ERS12561810” for “ERS12561804”; conditions: 2 µM
[19] = as §1, with “Z-008” for “Z-004”, “ERS12561808” for “ERS12561804”; conditions: 2 µM
Note: call rule not given here.

Row | Structure (SMILES) | Bacterial Biotransformation [1] | Bacterial Biotransformation [2] | Bacterial Biotransformation [3] | Bacterial Biotransformation [4] | Bacterial Biotransformation [5] | Bacterial Biotransformation [6] | Bacterial Biotransformation [7] | Bacterial Biotransformation [8] | Bacterial Biotransformation [9] | Bacterial Biotransformation [10] | Bacterial Biotransformation [11] | Bacterial Biotransformation [12] | Bacterial Biotransformation [13] | Bacterial Biotransformation [14] | Bacterial Biotransformation [15] | Bacterial Biotransformation [16] | Bacterial Biotransformation [17] | Bacterial Biotransformation [18] | Bacterial Biotransformation [19]
1 | COC(=O)C1=C(C)NC(C)=C(C(=O)OC(C)C)C1c1cccc2nonc12 (configuration not stated) [ISRADIPINE] | Compound metabolized | Compound metabolized | Compound metabolized | Compound metabolized | Compound NOT metabolized | Compound NOT metabolized | Compound metabolized | Compound metabolized | Compound metabolized | Compound metabolized | Compound metabolized | Compound NOT metabolized | Compound metabolized | Compound NOT metabolized | Compound metabolized | Compound metabolized | Compound metabolized |  | 
2 | Nc1ccc(/N=N/c2ccccc2)c(N)n1 [PHENAZOPYRIDINE] | Compound metabolized | Compound metabolized | Compound metabolized | Compound metabolized | Compound metabolized | Compound metabolized | Compound metabolized | Compound metabolized | Compound metabolized | Compound metabolized | Compound metabolized | Compound metabolized | Compound metabolized | Compound metabolized | Compound metabolized | Compound metabolized | Compound metabolized | Compound metabolized | Compound metabolized
3 | CN1CCc2cccc3c2[C@H]1Cc1ccc(O)c(O)c1-3 [APOMORPHINE] |  | Compound NOT metabolized | Compound NOT metabolized | Compound NOT metabolized | Compound NOT metabolized | Compound NOT metabolized | Compound NOT metabolized | Compound NOT metabolized | Compound NOT metabolized | Compound NOT metabolized | Compound NOT metabolized | Compound NOT metabolized | Compound NOT metabolized | Compound NOT metabolized | Compound NOT metabolized | Compound NOT metabolized | Compound NOT metabolized |  | 
4 | CN(C(=O)CN(CCO)CC(=O)N(C)C(C)(C)Cc1ccccc1)C(C)(C)Cc1ccccc1 [OXETHAZAINE] |  | Compound metabolized | Compound metabolized | Compound metabolized | Compound metabolized | Compound metabolized | Compound NOT metabolized | Compound metabolized | Compound metabolized | Compound metabolized | Compound metabolized | Compound metabolized | Compound metabolized | Compound metabolized | Compound metabolized | Compound metabolized | Compound metabolized |  | 
5 | CN1CCN(CC/C=C2/c3ccccc3Sc3ccc(S(=O)(=O)N(C)C)cc32)CC1 [THIOTHIXENE] |  | Compound metabolized | Compound metabolized | Compound metabolized | Compound metabolized | Compound metabolized | Compound NOT metabolized | Compound metabolized | Compound metabolized | Compound metabolized | Compound metabolized | Compound metabolized | Compound metabolized | Compound metabolized | Compound metabolized | Compound metabolized | Compound metabolized |  | 
6 | OC(CCN1CCCCC1)(c1ccccc1)C1CC2C=CC1C2 (configuration not stated) [BIPERIDEN] |  | Compound NOT metabolized | Compound NOT metabolized | Compound metabolized | Compound NOT metabolized | Compound NOT metabolized | Compound NOT metabolized | Compound NOT metabolized | Compound NOT metabolized | Compound NOT metabolized | Compound NOT metabolized | Compound metabolized | Compound NOT metabolized | Compound NOT metabolized | Compound metabolized | Compound NOT metabolized | Compound NOT metabolized |  | 
7 | CS(=O)(=O)O.O.O.O.O=C1Cc2cc(CCN3CCN(c4nsc5ccccc45)CC3)c(Cl)cc2N1 [ZIPRASIDONE MESYLATE] |  | Compound metabolized | Compound metabolized | Compound metabolized | Compound metabolized | Compound metabolized | Compound NOT metabolized | Compound NOT metabolized | Compound NOT metabolized | Compound NOT metabolized | Compound metabolized | Compound NOT metabolized | Compound metabolized | Compound metabolized | Compound metabolized | Compound metabolized | Compound metabolized |  | 
8 | CC(=O)O[C@]1(C(C)=O)CC[C@H]2[C@@H]3C=C(Cl)C4=CC(=O)[C@@H]5C[C@@H]5[C@]4(C)[C@H]3CC[C@@]21C [CYPROTERONE ACETATE] |  | Compound metabolized | Compound metabolized | Compound metabolized | Compound metabolized | Compound metabolized | Compound metabolized | Compound metabolized | Compound metabolized | Compound metabolized | Compound metabolized | Compound NOT metabolized | Compound metabolized | Compound metabolized | Compound metabolized | Compound metabolized | Compound metabolized | Compound metabolized | 
9 | CN1C[C@H](C(=O)N[C@]2(C)O[C@@]3(O)[C@@H]4CCCN4C(=O)[C@H](Cc4ccccc4)N3C2=O)C=C2c3cccc4[nH]cc(c34)C[C@H]21.CN1C[C@H](C(=O)N[C@]2(C)O[C@@]3(O)[C@@H]4CCCN4C(=O)[C@H](Cc4ccccc4)N3C2=O)C=C2c3cccc4[nH]cc(c34)C[C@H]21.O=C(O)C(O)C(O)C(=O)O [ERGOTAMINE TARTRATE] |  | Compound metabolized |  | Compound metabolized | Compound NOT metabolized | Compound NOT metabolized | Compound metabolized | Compound metabolized | Compound metabolized | Compound NOT metabolized | Compound metabolized | Compound metabolized |  | Compound metabolized | Compound metabolized | Compound metabolized | Compound metabolized |  | Compound NOT metabolized
10 | Cc1ccc(/C(=C\CN2CCCC2)c2ccccn2)cc1 [TRIPROLIDINE] | Compound NOT metabolized | Compound NOT metabolized | Compound NOT metabolized | Compound NOT metabolized | Compound NOT metabolized | Compound NOT metabolized | Compound NOT metabolized | Compound NOT metabolized | Compound NOT metabolized | Compound NOT metabolized | Compound NOT metabolized | Compound NOT metabolized | Compound NOT metabolized | Compound NOT metabolized | Compound NOT metabolized | Compound metabolized | Compound NOT metabolized | Compound NOT metabolized | Compound NOT metabolized
